The text below walks through data of patent publication US7915291B2, “Hepatitis C virus inhibitors” (Bristol-Myers Squibb Company, priority 2002, dated 2011).

As a reminder, the IC50 is the midpoint of a concentration-inhibition curve. As a reminder, the EC50 is the concentration needed to bring the measured effect to its halfway point.

One assay deals with HCV NS3/4A protease complex, BMS strain (UniProt P27958, C1454S/C1711G, species not given/STRAIN_BMS). Briefly: Recombinant HCV NS3/4A protease complex FRET peptide assay (BMS strain). The class given is biochemical, HCV genotype 1a. The settings on record: NS3/4A BMS strain; read-out: IC50 range. From the text: Recombinant HCV NS3/4A Protease Complex FRET Peptide Assay
The purpose of this in vitro assay was to measure the inhibition of HCV NS3 protease complexes, derived from the BMS, H77C or J416S strains, as described below, by compounds of the present invention.
Serum from an HCV-infected patient was obtained from Dr. T. Wright, San Francisco Hospital. An engineered full-length cDNA (compliment deoxyribonucleic acid) template of the HCV genome (BMS strain) was constructed from DNA fragments obtained by reverse transcription-PCR(RT-PCR) of serum RNA (ribonucleic acid) and using primers selected on the basis of homology between other genotype 1a strains.
The BMS, H77C and J4L6S strains were used for production of recombinant NS3/4A protease complexes. […] Briefly, a three-lysine solubilizing tail was added at the 3′-end of the NS4A coding region. […] Briefly, NS3/4A expression was induced with 0.5 mM Isopropyl β-D-1-thiogalactopyranoside (IPTG) for 22 hr at 20° C. […] The crude protein extract was loaded on a Nickel—Nitrilotriacetic acid (Ni-NTA) column pre-equilibrated with buffer B (25 mM HEPES, pH8.0, 20% glycerol, 500 mM NaCl, 0.5% Triton-X100, 15 mM imidazole, 5 mM βME). The sample was loaded at a flow rate of 1 mL/min. The column was washed with 15 column volumes of buffer C (same as buffer B except with 0.2% Triton-X100). The protein was eluted with 5 column volumes of buffer D (same as buffer C except with 200 mM Imidazole).
NS3/4A protease complex-containing fractions were pooled and loaded on a desalting column Superdex-S200 pre-equilibrated with buffer D (25 mM HEPES, pH7.5, 20% glycerol, 300 mM NaCl, 0.2% Triton-X100, 10 mM βME). Sample was loaded at a flow rate of 1 mL/min. NS3/4A protease complex-containing fractions were pooled and concentrated to approximately 0.5 mg/ml.
The enzyme was stored at −80° C., thawed on ice and diluted prior to use in assay buffer. […] The sequence of this peptide is loosely based on the NS4A/NS4B natural cleavage site except there is an ester linkage rather than an amide bond at the cleavage site. The peptide substrate was incubated with one of the three recombinant NS3/4A complexes, in the absence or presence of a compound of the present invention, and the formation of fluorescent reaction product was followed in real time using a Cytofluor Series 4000.
The reagents were as follow: HEPES and Glycerol (Ultrapure) were obtained from GIBCO-BRL. Dimethyl Sulfoxide (DMSO) was obtained from Sigma. β-Mercaptoethanol was obtained from Bio Rad.
Substrate: 2 μM final concentration (from a 2 mM stock solution in DMSO stored at −20° C.). HCV NS3/4A type 1a (1b), 2-3 nM final concentration (from a 5 μM stock solution in 25 mM HEPES, pH7.5, 20% glycerol, 300 mM NaCl, 0.2% Triton-X100, 10 mM βME).
The assay was performed in a 96-well polystyrene black plate from Falcon. Each well contained 25 μl NS3/4A protease complex in assay buffer, 50 μof a compound of the present invention in 10% DMSO/assay buffer and 25 μl substrate in assay buffer. A control (no compound) was also prepared on the same assay plate. The enzyme complex was mixed with compound or control solution for 1 min before initiating the enzymatic reaction by the addition of substrate. The assay plate was read immediately using the Cytofluor Series 4000 (Perspective Biosystems). The instrument was set to read an […] at 25° C. Reactions were generally followed for approximately 15 minutes.
The percent inhibition was calculated with the following equation: 100−[(δFinh/δFcon)×100] where δF is the change in fluorescence over the linear range of the curve.
For the molecule `C=C[C@@H]1C[C@]1(NC(=O)C1C[C@@H](Oc2nc(C3CC3)nc3cc(OC)c(OC)cc23)CN1C(=O)[C@@H](N)C(C)(C)C)C(=O)NS(=O)(=O)C1CC1` (stereo partly drawn) [Compound 49], the IC50 is 1000 to 10000 nM.

For `C=C[C@@H]1C[C@]1(NC(=O)C1C[C@@H](Oc2nc(C(F)(F)F)nc3cc(OC)c(OC)cc23)CN1C(=O)[C@@H](N)C(C)(C)C)C(=O)NS(=O)(=O)C1CC1` (stereo partly drawn) [Compound 52], the IC50 fell in the range of 1000 to 10000 nM.

Consider `C=CC1C[C@]1(NC(=O)[C@@H]1C[C@@H](Oc2nc(-c3cnccn3)c(OC)c3ccccc23)CN1C(=O)[C@@H](NC(=O)OC(C)(C)C)C(C)(C)C)C(=O)NS(=O)(=O)C1CC1` (stereo partly drawn) [Compound 231, BOCNH-P3(L-t-BuGly)-P2[(4R)-(3-pyrazine-2-yl-4-methoxy -isoquinolin-1-oxo)-S-proline]-P1(1R,2S VinylAcca)-CONHSO2Cyclopropane], for which the IC50 was in the range of 1000 to 10000 nM.

As for `C=CC1C[C@]1(NC(=O)[C@@H]1C[C@@H](Oc2nc(Cl)c(OC)c3ccccc23)CN1C(=O)[C@@H](NC(=O)OC(C)(C)C)C(C)(C)C)C(=O)NS(=O)(=O)C1CC1` (stereo partly drawn) [Compound 245, BOCNH-P3(L-t-BuGly)-P2[(4R)-(3-chloro-4-methoxyisoquinoline-1-oxo)-S-proline]-P1(1R,2S VinylAcca)-CONHSO2Cyclopropane], the IC50 lay within 100 to 1000 nM.

`C=C[C@@H]1C[C@]1(NC(=O)[C@@H]1C[C@@H](Oc2nccc3c(O)cccc23)CN1C(=O)[C@@H](NC(=O)OC(C)(C)C)C(C)(C)C)C(=O)NS(=O)(=O)C1CC1` [Compound 256]: the IC50 is 10000 to 100000 nM.

Take `C=CC1C[C@]1(NC(=O)[C@@H]1C[C@@H](Oc2nc(-c3cnc(N(C)C)s3)cc3cc(OC)ccc23)CN1C(=O)[C@@H](NC(=O)OC(C)(C)C)C(C)(C)C)C(=O)NS(=O)(=O)C1CC1` (stereo partly drawn) [Compound 331]: the IC50 was less than 100 nM.

For the molecule `C=CC1CC1(NC(=O)[C@@H]1C[C@@H](Oc2ccnc(N3CCc4ccccc4C3)n2)CN1C(=O)[C@@H](NC(=O)OC)C(C)(C)C)C(=O)NS(=O)(=O)C1CC1` (stereo partly drawn) [Compound 341], the IC50 lay within 1000 to 10000 nM.

Take `C=CC1CC1(NC(=O)[C@@H]1C[C@@H](Oc2ccnc(N3Cc4ccccc4C3)n2)CN1C(=O)[C@@H](NC(=O)OC)C(C)(C)C)C(=O)NS(=O)(=O)C1CC1` (stereo partly drawn) [Compound 342]: the IC50 is 1000 to 10000 nM.

With `C=CC1CC1(NC(=O)[C@@H]1C[C@@H](Oc2ccnc(N3CCOCC3)n2)CN1C(=O)[C@@H](NC(=O)OC)C(C)(C)C)C(=O)NS(=O)(=O)C1CC1` (stereo partly drawn) [Compound 343], the IC50 fell in the range of 1000 to 10000 nM.

Turning to `C=CC1C[C@]1(NC(=O)[C@@H]1C[C@@H](COc2ccnc3ccccc23)CN1C(=O)[C@@H](NC(=O)OC)C(C)(C)C)C(=O)NS(=O)(=O)C1CC1` (stereo partly drawn) [Compound 344], the IC50 fell in the range of 100 to 1000 nM.

For the molecule `C=CC1C[C@]1(NC(=O)[C@@H]1C[C@@H](COc2cncc(Br)c2)CN1C(=O)[C@@H](NC(=O)OC)C(C)(C)C)C(=O)NS(=O)(=O)C1CC1` (stereo partly drawn) [Compound 346], the IC50 lay within 1000 to 10000 nM.

Consider `C=CC1C[C@]1(NC(=O)[C@@H]1C[C@@H](COc2ccnc(Br)c2)CN1C(=O)[C@@H](NC(=O)OC)C(C)(C)C)C(=O)NS(=O)(=O)C1CC1` (stereo partly drawn) [Compound 348], for which the IC50 lay within 10000 to 100000 nM.

In the case of `C=CC1C[C@]1(NC(=O)[C@@H]1C[C@@H](COc2ccnc(-c3ccsc3)c2)CN1C(=O)[C@@H](NC(=O)OC)C(C)(C)C)C(=O)NS(=O)(=O)C1CC1` (stereo partly drawn) [Compound 349], the IC50 was in the range of 1000 to 10000 nM.

On to `C=CC1C[C@]1(NC(=O)[C@@H]1C[C@@H](COc2ccnc(-c3ccoc3)c2)CN1C(=O)[C@@H](NC(=O)OC)C(C)(C)C)C(=O)NS(=O)(=O)C1CC1` (stereo partly drawn) [Compound 351], for which the concentration for half-maximal inhibition (IC50) is 1000 to 10000 nM.

Consider `C=CC1C[C@]1(NC(=O)[C@@H]1C[C@@H](COc2cccc(Br)n2)CN1C(=O)[C@@H](NC(=O)OC)C(C)(C)C)C(=O)NS(=O)(=O)C1CC1` (stereo partly drawn) [Compound 352], for which the IC50 fell in the range of 10000 to 100000 nM.

For the molecule `C=CC1C[C@]1(NC(=O)[C@@H]1C[C@@H](COc2cccc(-c3ccsc3)n2)CN1C(=O)[C@@H](NC(=O)OC)C(C)(C)C)C(=O)NS(=O)(=O)C1CC1` (stereo partly drawn) [Compound 353], the IC50 is 10000 to 100000 nM.

In the case of `C=CC1C[C@]1(NC(=O)[C@@H]1C[C@@H](COc2cccc(-c3ccccc3)n2)CN1C(=O)[C@@H](NC(=O)OC)C(C)(C)C)C(=O)NS(=O)(=O)C1CC1` (stereo partly drawn) [Compound 354], the IC50 lay in the range of 1000 to 10000 nM.

As to `C=CC1CC1(NC(=O)[C@@H]1C[C@@H](Oc2cncc(Br)c2)CN1C(=O)[C@@H](NC(=O)OC(C)(C)C)C(C)(C)C)C(=O)NS(=O)(=O)C1CC1` (stereo partly drawn) [Compound 423], the IC50 fell in the range of 100 to 1000 nM.

Consider `C=CC1CC1(NC(=O)[C@@H]1C[C@@H](Sc2cccc3ccccc23)CN1C(=O)[C@@H](NC(=O)OC(C)(C)C)C(C)(C)C)C(=O)NS(C)(=O)=O` (stereo partly drawn) [Compound 451], for which the IC50 is 1000 to 10000 nM.

On to `C=CC1CC1(NC(=O)[C@@H]1C[C@@H](Sc2ccc3ccccc3c2)CN1C(=O)[C@@H](NC(=O)OC(C)(C)C)C(C)(C)C)C(=O)NS(C)(=O)=O` (stereo partly drawn) [Compound 452], for which the IC50 was 1000 to 10000 nM.

In the case of `C=C[C@@H]1C[C@]1(NC(=O)[C@@H]1C[C@@H](Oc2cccc3ccccc23)CN1C(=O)[C@@H](NC(=O)OC(C)(C)C)C(C)(C)C)C(=O)NS(C)(=O)=O` [Compound 470], the IC50 lay within 100 to 1000 nM.

On to `C=C[C@H]1C[C@@]1(NC(=O)[C@@H]1C[C@@H](Oc2cccc3ccccc23)CN1C(=O)[C@@H](NC(=O)OC(C)(C)C)C(C)(C)C)C(=O)NS(C)(=O)=O` [Compound 471], for which the IC50 was 1000 to 10000 nM.

The same assay, now with this note: read-out: IC50 range; NS3/4A BMS strain.
In the case of `C=CC1CC1(NC(=O)C1CC(Oc2nccc3cc(OC)ccc23)CN1C(=O)C(NC)C(C)CC)C(=O)NS(=O)(=O)C1CC1` (stereo not drawn) [Compound 99], the IC50 was in the range of 1000 to 10000 nM.

The test system of the next assay is HCV replicon in Huh7 cells. Briefly: HCV replicon cell-based assay. Also noted: species or system HCV strain 1B. The settings on record: Hepatitis C virus, Huh-7; HCV replicon, Huh7 cells; read-out: EC50 range. From the text:
HCV Replicon Cell-based Assay
This system enabled us to evaluate the effects of our HCV Protease compounds on HCV RNA replication. Briefly, using the HCV strain 1B sequence described in the Lohmann paper (Assession number:AJ238799), an HCV cDNA was generated encoding the 5′ internal ribosome entry site (IRES), the neomycin resistance gene, the EMCV (encephalomyocarditis virus)-IRES and the HCV nonstructural proteins, NS3-NS5B, and 3′ non-translated region (NTR). In vitro transcripts of the cDNA were transfected into the human hepatoma cell line, Huh7. […] Resulting cell lines were characterized for positive and negative strand RNA production and protein production over time.
Huh7 cells, constitutively expressing the HCV replicon, were grown in Dulbecco's Modified Eagle Media (DMEM) containing 10% Fetal calf serum (FCS) and 1 mg/ml G418 (Gibco-BRL). Cells were seeded the night before (1.5×10^4 cells/well) in 96-well tissue-culture sterile plates. Compound and no compound controls were prepared in DMEM containing 4% FCS, 1:100 Penicillin/Streptomysin, 1:100 L-glutamine and 5% DMSO in the dilution plate (0.5% DMSO final concentration in the assay). Compound/DMSO mixes were added to the cells and incubated for 4 days at 37° C. After 4 days, plates were rinsed thoroughly with Phosphate-Buffered Saline (PBS) (3 times 150 μl). The cells were lysed with 25 μl of a lysis assay reagent containing the FRET peptide (RET S1, as described for the in vitro enzyme assay). The lysis assay reagent was made from 5× cell Luciferase cell culture lysis reagent(Promega #E153A) diluted to 1× with distilled water, NaCl added to 150 mM final, the FRET peptide diluted to 10 μM final from a 2 mM stock in 100% DMSO. The plate was then placed into the Cytofluor 4000 instrument which had been set to 340 nm excitation/490 emission, automatic mode for 21 cycles and the plate read in a kinetic mode. EC50 determinations were carried out as described for the IC50 determinations.
Cells were lyzed using the Rneasy kit (Qiagen). […] All primers were designed with ABI Prism 7700 software and obtained from Biosearch Technologies, Novato, Calif. Samples containing known concentrations of HCV RNA transcript were run as standards. Using the following cycling protocol (50° C., 30 min; 95° C., 5 min; 40 cycles of 95° C., 15 sec, 60° C., 1 min), HCV RNA expression was quantitated as described in the Perkin Elmer manual using the ABI Prism 7700 Sequence Detector.
(In general: A replicon is a self-replicating genome or part of one, used to study replication in cells.)
Regarding `C=C[C@@H]1CC1(NC(=O)[C@@H]1CC(Oc2nccc3cc(OC)ccc23)CN1C(=O)[C@@H](NC(=O)NC(C)(C)C)C(C)(C)C)C(=O)NS(=O)(=O)C1CC1` (stereo partly drawn) [Compound 74], the half-maximal effective concentration (EC50) is less than 100 nM.
